Assay results taken from ChEMBL document CHEMBL4229501, “Synthesis, characterization and nociceptive screening of new VV-hemorphin-5 analogues” (Bioorg Med Chem Lett, 2018).
Active and inactive are the calls of the source. The calls are words filed in the database; no cut-off is given here. Square brackets hold non-standard residues; d marks the D form. Peptide text beside a SMILES is read from it. Aib = CC(C)(N)C(=O)O

Assays:
[1] = Dissociation constant, pKa of the compound at pH 5.02 to 10.20 by cyclic voltammetry; format: physicochemical
[2] = Anodic potential of the compound at pH 5.02 by differential pulse voltammetry; format: physicochemical
[3] = Anodic potential of the compound at pH 6.02 by differential pulse voltammetry; format: physicochemical
[4] = Anodic potential of the compound at pH 6.86 by differential pulse voltammetry; format: physicochemical
[5] = Anodic potential of the compound at pH 8.10 by differential pulse voltammetry; format: physicochemical; conditions: pH 8.1
[6] = Anodic potential of the compound at pH 9.20 by differential pulse voltammetry; format: physicochemical; conditions: pH 9.2
[7] = Anodic potential of the compound at pH 10.20 by differential pulse voltammetry; format: physicochemical; conditions: pH 10.2
Mus musculus [8] = experiment: Antinociceptive activity in albino ICR mouse assessed as decrease in number of acetic acid-induced abdominal constriction at 25 ug/mouse, icv administered 5 mins prior to acetic acid challenge and measured every 5 mins for 30 mins post acetic acid challenge; format: functional, organism-based
Mus musculus [9] = experiment: Antinociceptive activity in albino ICR mouse assessed as decrease in number of acetic acid-induced abdominal constriction at 100 ug/mouse, icv administered 5 mins prior to acetic acid challenge and measured every 5 mins for 10 mins post acetic acid challenge; format: functional, organism-based
Mus musculus [10] = experiment: Antinociceptive activity in albino ICR mouse assessed as decrease in number of acetic acid-induced abdominal constriction at 25 to 50 ug/mouse, icv administered 5 mins prior to acetic acid challenge and measured every 5 mins for 30 mins post acetic acid challenge; format: functional, organism-based
Mus musculus [11] = experiment: Antinociceptive activity in albino ICR mouse assessed as decrease in number of acetic acid-induced abdominal constriction at 100 ug/mouse, icv administered 5 mins prior to acetic acid challenge and measured at 5 mins post acetic acid challenge; format: functional, organism-based
Mus musculus [12] = experiment: Antinociceptive activity in albino ICR mouse assessed as decrease in number of acetic acid-induced abdominal constriction at 100 ug/mouse, icv administered 5 mins prior to acetic acid challenge and measured every 5 mins for 15 mins post acetic acid challenge; format: functional, organism-based
Mus musculus [13] = experiment: Antinociceptive activity in albino ICR mouse assessed as decrease in number of acetic acid-induced abdominal constriction at 25 to 100 ug/mouse, icv administered 5 mins prior to acetic acid challenge and measured every 5 mins for 30 mins post acetic acid challenge; format: functional, organism-based
Mus musculus [14] = experiment: Antinociceptive activity in albino ICR mouse assessed as decrease in number of acetic acid-induced abdominal constriction at 50 ug/mouse, icv administered 5 mins prior to acetic acid challenge and measured every 5 mins for 30 mins post acetic acid challenge; format: functional, organism-based
Mus musculus [15] = experiment: Antinociceptive activity in albino ICR mouse assessed as decrease in number of acetic acid-induced abdominal constriction at 50 to 100 ug/mouse, icv administered 5 mins prior to acetic acid challenge and measured every 5 mins for 30 mins post acetic acid challenge; format: functional, organism-based

Row | Compound | pKa [1] | Activity [2] [V] | Activity [3] [V] | Activity [4] [V] | Activity [5] [V] | Activity [6] [V] | Activity [7] [V] | other results
1 | CC[C@H](C)[C@H](N)C(=O)N[C@H](C(=O)N[C@H](C(=O)N[C@@H](Cc1ccc(O)cc1)C(=O)N1CCC[C@H]1C(=O)N[C@@H](Cc1c[nH]c2ccccc12)C(=O)N[C@H](C(=O)N[C@@H](CCC(N)=O)C(N)=O)[C@@H](C)O)C(C)C)C(C)C | 8.01 | 0.213 | 0.16 | 0.11 | 0.062 | 0.067 | 0.06 | –
2 | CC(C)[C@H](N)C(=O)N[C@H](C(=O)N[C@@H](Cc1ccc(O)cc1)C(=O)N1CCC[C@H]1C(=O)N[C@@H](Cc1c[nH]c2ccccc12)C(=O)N[C@H](C(=O)N[C@H](CCCCN)C(N)=O)[C@@H](C)O)C(C)C | – | – | – | – | – | – | – | Activity (Mus musculus [8]): Active; Activity (Mus musculus [9]): Active
3 | CC(C)[C@H](N)C(=O)N[C@H](C(=O)N[C@@H](Cc1ccc(O)cc1)C(=O)N1CCC[C@H]1C(=O)N[C@@H](Cc1c[nH]c2ccccc12)C(=O)N[C@H](C(=O)N[C@@H](CCCCN)C(N)=O)[C@@H](C)O)C(C)C | 8.24 | 0.211 | 0.15 | 0.125 | 0.071 | 0.055 | 0.057 | –
4 | CC(C)[C@H](N)C(=O)N[C@H](C(=O)N[C@@H](Cc1ccc(O)cc1)C(=O)N1CCC[C@H]1C(=O)N[C@@H](Cc1c[nH]c2ccccc12)C(=O)N[C@H](C(=O)N[C@@H](CN)C(N)=O)[C@@H](C)O)C(C)C | 9.23 | 0.225 | 0.207 | 0.15 | 0.085 | 0.008 | 0.001 | –
5 | CC(C)[C@H](N)C(=O)N[C@H](C(=O)N[C@@H](Cc1ccc(O)cc1)C(=O)N1CCC[C@H]1C(=O)N[C@@H](Cc1c[nH]c2ccccc12)C(=O)N[C@H](C(=O)N[C@@H](CCN)C(N)=O)[C@@H](C)O)C(C)C | 8.12 | 0.23 | 0.13 | 0.07 | 0.009 | 0.001 | 0 | –
6 | CC(C)[C@H](N)C(=O)N[C@H](C(=O)N[C@@H](Cc1ccc(O)cc1)C(=O)N1CCC[C@H]1C(=O)N[C@@H](Cc1c[nH]c2ccccc12)C(=O)N[C@H](C(=O)N[C@H](CCN)C(N)=O)[C@@H](C)O)C(C)C | – | – | – | – | – | – | – | Activity (Mus musculus [10]): Dose-dependent effect; Activity (Mus musculus [11]): Active; Activity (Mus musculus [12]): inactive
7 | CC(C)[C@H](N)C(=O)N[C@H](C(=O)N[C@@H](Cc1ccc(O)cc1)C(=O)N1CCC[C@H]1C(=O)N[C@@H](Cc1c[nH]c2ccccc12)C(=O)N[C@H](C(=O)N[C@H](CN)C(N)=O)[C@@H](C)O)C(C)C | – | – | – | – | – | – | – | Activity (Mus musculus [13]): Active
8 | CC(C)[C@H](N)C(=O)N[C@H](C(=O)N[C@@H](Cc1ccc(O)cc1)C(=O)N1CCC[C@H]1C(=O)N[C@@H](Cc1c[nH]c2ccccc12)C(=O)N[C@H](C(=O)N[C@H](CCCN)C(N)=O)[C@@H](C)O)C(C)C | – | – | – | – | – | – | – | Activity (Mus musculus [8]): inactive; Activity (Mus musculus [14]): Active
9 | H-VVYPWTQ-NH2 | 7.13 | 0.225 | 0.151 | 0.048 | 0.046 | 0.046 | 0.046 | Activity (Mus musculus [15]): Active; Activity (Mus musculus [8]): inactive
10 | CC(C)[C@H](N)C(=O)N[C@H](C(=O)N[C@@H](Cc1ccc(O)cc1)C(=O)N1CCC[C@H]1C(=O)N[C@@H](Cc1c[nH]c2ccccc12)C(=O)N[C@H](C(=O)N[C@@H](CCCN)C(N)=O)[C@@H](C)O)C(C)C | 7.83 | 0.225 | 0.175 | 0.117 | 0.075 | 0.082 | 0.079 | –
11 | CC[C@H](C)[C@@H](N)C(=O)N[C@H](C(=O)N[C@H](C(=O)N[C@@H](Cc1ccc(O)cc1)C(=O)N1CCC[C@H]1C(=O)N[C@@H](Cc1c[nH]c2ccccc12)C(=O)N[C@H](C(=O)N[C@@H](CCC(N)=O)C(N)=O)[C@@H](C)O)C(C)C)C(C)C | – | – | – | – | – | – | – | Activity (Mus musculus [10]): Dose-dependent effect; Activity (Mus musculus [9]): inactive
12 | CC(C)[C@H](NC(=O)[C@@H](NC(=O)C(C)(C)N)C(C)C)C(=O)N[C@@H](Cc1ccc(O)cc1)C(=O)N1CCC[C@H]1C(=O)N[C@@H](Cc1c[nH]c2ccccc12)C(=O)N[C@H](C(=O)N[C@@H](CCC(N)=O)C(N)=O)[C@@H](C)O (H-[Aib]VVYPWTQ-NH2) | 8.17 | 0.232 | 0.175 | 0.101 | 0.025 | 0.031 | 0.03 | Activity (Mus musculus [13]): inactive
